Source: US8933029B2, “Antimicrobial and anti-inflammatory peptides” (Carrus Capital Corporation, priority 2001, dated 2015)
Marks after values point to notes of the source that are not given here. Ends that are not written are not given here.

Experiments:
TPA-induced ear edema = assay: TPA ear edema model; settings: for Topical Dose (% change vs. vehicle) 1.0%: topical 1.0%; for Topical Dose (% change vs. vehicle) 1.0% / Topical Dose (% change vs. vehicle) 0.1% / Topical Dose (% change vs. vehicle) 5 0%: ear biopsy weight six hours after TPA; for Systemic Dose (% change vs. vehicle) 5 mg/kg: systemic 5 mg/kg; for Topical Dose (% change vs. vehicle) 0.1%: topical 0.1%; for Topical Dose (% change vs. vehicle) 5 0%: topical 5 0%
IFNγ = assay: Inhibition of cytokine production in PHA-activated PBLs (ELISA); type: cell-based; settings: human PBLs, 10 μg/ml PHA, 48 hours, supernatant ELISA
Procedure: (§1) Briefly, human PBLs are collected from a subject and plated at 10^6 cells/ml in serum free lymphocyte growth medium, stimulated with 10 μg/ml phytohemagglutinin (PHA) in the presence or absence of the candidate peptide. The PBLs are incubated at 37° C. at 5% CO2 for 48 h, at which point the supernatants were collected. An ELISA is performed on the supernatants to detect a cytokine of interest (e.g., IL-1, TNF-α, IFN-γ) and the cells are incubated for another 72 h to measure proliferation (see, e.g., Sigusch et al., J. Periodontol. 69:1098, 1998).
(§2) Human peripheral blood lymphocytes (PBLs) were collected from a healthy adult […] and plated at 10^6 cells/ml in serum free lymphocyte growth media in a 96-well plate. The PBLs were stimulated with 10 μg/ml PHA in the presence or absence of test sample and incubated at 37° C. at 5% CO2 for 48 hours. Collected and pooled supernatants were stored at −20° C., then assayed with commercially available ELISA kits (Endogen and Biosource) and assayed for viability with LDH (Bochringer Mannheim). The cells remaining after supernatant removal were returned to the incubator and proliferation was determined at 72 hours by using AlamarBlue (Alamar Bioscience). Compounds were tested at 1, 10, 100 and 1000 μg/ml. The peptides were effective at inhibiting cytokine production and PBL proliferation (Table 4), which indicates these peptides can function as anti-inflammatory agents.

IL-10 = assay: as above; type: cell-based; settings: human PBLs, 10 μg/ml PHA, 48 hours, supernatant ELISA
Procedure: as §1, §2

IL-12 = assay: as above; type: cell-based; settings: human PBLs, 10 μg/ml PHA, 48 hours, supernatant ELISA
Procedure: as §1, §2

IL-1α = assay: as above; type: cell-based; settings: human PBLs, 10 μg/ml PHA, 48 hours, supernatant ELISA
Procedure: as §1, §2

IL-2 = assay: as above; type: cell-based; settings: human PBLs, 10 μg/ml PHA, 48 hours, supernatant ELISA
Procedure: as §1, §2

IL-4 = assay: as above; type: cell-based; settings: human PBLs, 10 μg/ml PHA, 48 hours, supernatant ELISA
Procedure: as §1, §2

IL-6 = assay: as above; type: cell-based; settings: human PBLs, 10 μg/ml PHA, 48 hours, supernatant ELISA
Procedure: as §1, §2

TNFα = assay: as above; type: cell-based; settings: human PBLs, 10 μg/ml PHA, 48 hours, supernatant ELISA
Procedure: as §1, §2

[1] = system: oxazolone contact hypersensitivity (ear inflammation); assay: Oxazolone contact hypersensitivity model; type: in vivo, CD-1 mice; settings: Dosage of 0.1%, applied to ear one hour after oxazolone challenge, ear punch weight after 24 h, 70% EtOH/30% propylene glycol vehicle
Procedure: Briefly, a 3.0% (w/v) solution of oxazolone in acetone/corn oil (5:1) is applied topically to the skin on the shaved abdomens of mice of approximately the same weight and approximately the same age on day 0. […] Twenty-four hours later a dermal biopsy punch of the treated ear is taken and weighed.
CD-1 mice are treated with 3% oxazolone (Sigma) (30 mg/ml) in corn oil:acetone on a shaved abdomen. All solutions are sonicated for 7 minutes. Five days later, the mice are challenged with a 2% oxazolone (20 mg/ml) in acetone on the left ear, with the right ear being left untreated (control). One hour after challenge, the candidate peptide in a 70% EtOH/30% propylene glycol formulation (vehicle) was applied to the left ear, with the right ear being left untreated. After 24 h, 7 mm ear punches are taken from each ear of the mice. The ear punches are placed on a scale and the difference between the treated and untreated ears were compared. The percent inhibition of inflammation was calculated by comparing the mean of each treated group to the control group. The positive control is hydrocortisone (a known anti-inflammatory agent). Most of the indolicidin peptides inhibited inflammation as well as hydrocortisone.

[2] = formulated in 50% ethanol/5 mM lactate buffer (*)

With “ILRWVWWVWRRK-NH2 [Peptide 11F4CN, I L R W V W W V W R R K]” the “Topical Dose (% change vs. vehicle) 1.0%” value (TPA-induced ear edema; formulated in 95% ethanol) was −55%.

In the case of “L R F L K W A F R L W K L (LRFLKWAFRLWKL-{CN}) [Peptide 11J45CN]”, the “Topical Dose (% change vs. vehicle) 1.0%” value (TPA-induced ear edema; formulated in 95% ethanol) is reported as −69%.

In the case of “R L G G G G G G R R (RLGGGGGGRR-{CN}) [Peptide 11F83CN]”, the “Topical Dose (% change vs. vehicle) 1.0%” value (TPA-induced ear edema; formulated in 95% ethanol) is reported as −28%.

With “R L L V W W V L R R (RLLVWWVLRR-{CN}) [Peptide 11F82CN]” the “Topical Dose (% change vs. vehicle) 1.0%” value (TPA-induced ear edema; formulated in 95% ethanol) was −62%.

For “R L W V V V V W R R (RLWVVVVWRR-{CN}) [Peptide 11F65CN]”, the “Systemic Dose (% change vs. vehicle) 5 mg/kg” value (TPA-induced ear edema) was −15% and the “Topical Dose (% change vs. vehicle) 1.0%” value (TPA-induced ear edema; formulated in 95% ethanol) was −94%.

“R L W V W W V W (RLWVWWVW-{CN}) [Peptide 11F11CN]” was tested, and the “Topical Dose (% change vs. vehicle) 0.1%” value (TPA-induced ear edema; [2]) was −49* %, the “Topical Dose (% change vs. vehicle) 1.0%” value (TPA-induced ear edema; [2]) was −75* % and the “Topical Dose (% change vs. vehicle) 1.0%” value (TPA-induced ear edema; formulated in 95% ethanol) was −87%.

With “R L W W Q Q W W R R (RLWWQQWWRR-{CN}) [Peptide 11F60CN]” the “Topical Dose (% change vs. vehicle) 1.0%” value (TPA-induced ear edema; formulated in 95% ethanol) was −41%.

For “RLVVWVVWRR-NH2 [Peptide 11F66CN, R L V V W V V W R R]”, the “IC50 IFNγ” value (IFNγ) was 125 mg/L, the “IC50 IL-10” value (IL-10) was 40 mg/L and the “IC50 IL-12” value (IL-12) was 280 mg/L. For the same substance, the “IC50 IL-1α” value (IL-1α) was over 1000 mg/L, the “IC50 IL-2” value (IL-2) was 480 mg/L and the “IC50 IL-4” value (IL-4) was over 1000 mg/L. For the same substance, the “IC50 IL-6” value (IL-6) was 1 mg/L, the “IC50 TNFα” value (TNFα) was 110 mg/L and the “% Inhibition of Inflammation” value [1] was 79.85%. For the same substance, the “Topical Dose (% change vs. vehicle) 0.1%” value (TPA-induced ear edema; [2]) was −17* %, the “Topical Dose (% change vs. vehicle) 1.0%” value (TPA-induced ear edema; [2]) was −64* % and the “Topical Dose (% change vs. vehicle) 5 0%” value (TPA-induced ear edema; [2]) was −81* %.

RLVVWVVWRRX-OH [Peptide 11F110] was tested, and the “Topical Dose (% change vs. vehicle) 0.1%” value (TPA-induced ear edema; [2]) was −45* %, the “Topical Dose (% change vs. vehicle) 1.0%” value (TPA-induced ear edema; [2]) was −83* % and the “Topical Dose (% change vs. vehicle) 5 0%” value (TPA-induced ear edema; [2]) was −87* %.

With “RLWVWWVWRR-NH2 [Peptide 11F17CN, R L W V W W V W R R]” the “IC50 IFNγ” value (IFNγ) was 93 mg/L, the “IC50 IL-10” value (IL-10) was 18 mg/L and the “IC50 IL-12” value (IL-12) was 120 mg/L. The “IC50 IL-1α” value (IL-1α) was 45 mg/L, the “IC50 IL-2” value (IL-2) was over 1000 mg/L and the “IC50 IL-4” value (IL-4) was 220 mg/L. The “IC50 IL-6” value (IL-6) was 500 mg/L, the “IC50 TNFα” value (TNFα) was 70 mg/L and the “% Inhibition of Inflammation” value [1] was 71.60%.

With “RLWVWWVWRRK-NH2 [Peptide 11F12CN, R L W V W W V W R R K]” the “IC50 IFNγ” value (IFNγ) was 250 mg/L, the “IC50 IL-10” value (IL-10) was 30 mg/L and the “IC50 IL-12” value (IL-12) was 120 mg/L. The “IC50 IL-1α” value (IL-1α) was 500 mg/L, the “IC50 IL-2” value (IL-2) was 570 mg/L and the “IC50 IL-4” value (IL-4) was 325 mg/L. For the same substance, the “IC50 IL-6” value (IL-6) was 140 mg/L, the “IC50 TNFα” value (TNFα) was 68 mg/L and the “% Inhibition of Inflammation” value [1] was 86.50%. For the same substance, the “Topical Dose (% change vs. vehicle) 1.0%” value (TPA-induced ear edema; formulated in 95% ethanol) was −56%.

With “W (Dab) W W (Dab) P (Dab) W (Dab) W P (Dab) W [Peptide 11J68CN]” the “Topical Dose (% change vs. vehicle) 1.0%” value (TPA-induced ear edema; [2]) was −55* % and the “Topical Dose (% change vs. vehicle) 5 0%” value (TPA-induced ear edema; [2]) was −85* %.

For “W (Orn) W W (Orn) P (Orn) W (Orn) W P (Orn) W [Peptide 11J67CN]”, the “Topical Dose (% change vs. vehicle) 1.0%” value (TPA-induced ear edema; [2]) was −33* % and the “Topical Dose (% change vs. vehicle) 5 0%” value (TPA-induced ear edema; [2]) was −66* %.

“W R L L K L A L R L L K W (WRLLKLALRLLKW-{CN}) [Peptide 11J44CN]” was tested, and the “Systemic Dose (% change vs. vehicle) 5 mg/kg” value (TPA-induced ear edema) was −32% and the “Topical Dose (% change vs. vehicle) 1.0%” value (TPA-induced ear edema; formulated in 95% ethanol) was −88%.

“WRWWKPKWRWPKW-NH2 [Peptide 11J02CN, W R W W K P K W R W P K W]” was tested, and the “IC50 IFNγ” value (IFNγ) was 45 mg/L, the “IC50 IL-10” value (IL-10) was 23 mg/L and the “IC50 IL-12” value (IL-12) was 34 mg/L. The “IC50 IL-1α” value (IL-1α) was 7 mg/L, the “IC50 IL-2” value (IL-2) was over 1000 mg/L and the “IC50 IL-4” value (IL-4) was 115 mg/L. For the same substance, the “IC50 IL-6” value (IL-6) was 510 mg/L, the “IC50 TNFα” value (TNFα) was 34 mg/L and the “% Inhibition of Inflammation” value [1] was 58.12%. The “Topical Dose (% change vs. vehicle) 1.0%” value (TPA-induced ear edema; formulated in 95% ethanol) was −44%.

For “WRWWKVAWRWVKW-NH2 [Peptide 11J30CN, W R W W K V A W R W V K W]”, the “IC50 IFNγ” value (IFNγ) was 28 mg/L, the “IC50 IL-10” value (IL-10) was 33 mg/L and the “IC50 IL-12” value (IL-12) was 26 mg/L. The “IC50 IL-1α” value (IL-1α) was 25 mg/L, the “IC50 IL-2” value (IL-2) was over 1000 mg/L and the “IC50 IL-4” value (IL-4) was 65 mg/L. The “IC50 IL-6” value (IL-6) was 4 mg/L, the “IC50 TNFα” value (TNFα) was 36 mg/L and the “% Inhibition of Inflammation” value [1] was 94.15%. For the same substance, the “Topical Dose (% change vs. vehicle) 1.0%” value (TPA-induced ear edema; formulated in 95% ethanol) was −26%.

In the case of “Y R Y Y K P K Y R Y P K Y (YRYYKPKYRYPKY-{CN}) [Peptide 11J32CN]”, the “Topical Dose (% change vs. vehicle) 1.0%” value (TPA-induced ear edema; formulated in 95% ethanol) is reported as −30%.
